Common to all, as to type: biochemical
Data set [1] addresses T1, Cathepsin Y (Homo sapiens, UniProt Q9UBR2).
T1 construct: source of the purified preparation not in excerpts; cDNA from human HS683 cells, expressed in 293 cells
In words: Inhibition of Cathepsin Y carboxypeptidase activity (o-phthalaldehyde fluorescence, acetylated EGYYGNYGV substrate). Particulars: pH 4.5. The protocol: (§1) This is accomplished by reacting with the reagent o-phthalaldehyde in an alkaline solution in the presence of 2-mercaptoethanol (Simons, et al., JACS, 98:7098-7099, (1976)).
(§2) A standard curve was constructed by incubating varying concentrations of valine (0-20 μM) in 0.25M sodium borate, pH 10, containing 0.05% 2-mercaptoethanol and 60 μg/mL o-phthalaldehyde, in individual wells of a 96 well microtiter plate. The resulting fluorescence is read in a plate reading Cytofluor (ex 340, em 460 nm). There is a linear increase in the signal proportional to the amount of free valine present (FIG. 7).
(§3) In order to determine the pH optimum of the enzyme, reaction mixtures were set up with enzyme and substrate (0.2 mg/mL) in a total reaction volume of 0.1 mL) in individual wells of 96-well microtiter plates, in 20 mM sodium acetate buffers at different pHs, with 0.1% 2-mercaptoethanol present. Control wells were set identically except for the […] of enzyme. At various time-points after incubation at room temperature, the reactions were quenched by the addition of an equal volume of 0.45M sodium borate, pH 10, with 0.25 mg/mL o-phthalaldehyde, and the fluorescence measured. In the absence of added enzyme, no measurable fluorescence is generated above background, even with extended incubations. In the presence of enzyme, there is a time-dependent increase in fluorescence.
Using this assay at pH 4.5, the ability of a number of compounds to inhibit the activity of Cathepsin Y was tested, by adding the desired concentration of the inhibitor in the incubation mixture along with enzyme and substrate, and measuring the decrease in fluorescence (if any) relative to enzyme control.

Data set [2] has as its target T1, Cathepsin Y. As to the kind of experiment: Cleavage of synthetic oligopeptides by purified Cathepsin Y (RP-HPLC, amino-acid analysis). Particulars: for cleavage product(s) of parent oligopeptide with Cathepsin Y: 50 μg/mL peptide, pH 4.5 or 5.5, 1 hour, 37° C. The protocol: In an effort to identify whether the enzyme has other proteolytic activity, a number of randomly selected synthetic oligopeptides were incubated with purified Cathepsin Y at pH 5.5 or 4.5. Specifically, purified Cathepsin Y was incubated with the selected synthetic oligopeptides (50 μg/mL) at either pH 4.5 or pH 5.5, for 1 hour at 37° C. Samples were quenched by the addition of trifluoroacetic acid to 1% final concentration, then analyzed by reverse phase HPLC on a Vydac C18 column, using a gradient of increasing acetonitrile in 0.1% trifluoroacetic acid. Individual peaks (parent and new product(s)) were collected, then analyzed by acid hydrolysis followed by amino-acid analysis.

The subject of data set [3] is APP. As to the kind of experiment: Proteolytic activity of purified Cathepsin Y on APP preparations. Particulars: purified recombinant APP constructs and membrane-bound full-length APP.
The nature of data set [4]: pH optimum of Cathepsin Y carboxypeptidase activity. Particulars: 20 mM sodium acetate buffers, room temperature. The protocol:
as §1, §2, §3

The nature of data set [5]: Activity of Cathepsin Y on synthetic substrates used for assaying Cathepsin B, L or S.
Setting [6] is: synthetic oligopeptides, pH 4.5 or 5.5.

Entries after “also recorded” stand apart in the source; their conditions may differ. Where a SMILES comes first, the peptide text is derived from it. [ ]: non-standard residue; d: D form. The star is where a group is joined. Cbz = O=C(OCc1ccccc1)*

We go through 16 molecules from patent publication US5783434A, “Cathepsin and methods and compositions for inhibition thereof” (priority 1995, dated 1998).

T1 sequence (Q9UBR2 62-303): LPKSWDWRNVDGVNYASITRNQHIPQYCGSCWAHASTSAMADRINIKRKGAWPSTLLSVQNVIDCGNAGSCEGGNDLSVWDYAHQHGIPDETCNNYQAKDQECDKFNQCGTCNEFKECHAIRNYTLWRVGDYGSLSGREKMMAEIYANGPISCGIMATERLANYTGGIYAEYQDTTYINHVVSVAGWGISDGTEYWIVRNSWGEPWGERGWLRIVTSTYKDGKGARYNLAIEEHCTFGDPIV

For `O=C[C@H](Cc1ccccc1)NC(=O)CCCCc1ccccc1` [Example 4], the “inhibition of Cathepsin Y activity” value in data set [1] is reported as “indicated inhibition of Cathepsin Y activity”. Still for that read-out and setting: with `CSCC[C@@H](C=O)NC(=O)[C@@H](NC(=O)OCc1ccccc1)C(C)C` [Example 47] (Cbz-Val-Met-aldehyde) the entry was “indicated inhibition of Cathepsin Y activity”. Consider LFYDQSPTATI, for which the “cleavage product(s) of parent oligopeptide with Cathepsin Y” value (from here on “cleavage product(s)”) in data set [2] is given as “LFYDQSPTAT; also recorded: LFYDQSPTA; also recorded: LFYDQSPT”. On to `O=C[C@H](Cc1ccccc1)NC(=O)N(c1ccccc1)c1ccccc1` [Example 75], for which the “inhibition of Cathepsin Y activity” value in data set [1] is listed as “indicated inhibition of Cathepsin Y activity”.

Turning to `O=C[C@H](Cc1ccc(OCc2ccccc2)cc1)NC(=O)C(c1ccccc1)c1ccccc1` [Example 45], in data set [1], the “inhibition of Cathepsin Y activity” value was “indicated inhibition of Cathepsin Y activity”.

On to `O=C[C@H](Cc1ccccc1)NC(=O)C(=Cc1ccccc1)c1ccccc1` [Example 7], for which the “inhibition of Cathepsin Y activity” value in data set [1] is “indicated inhibition of Cathepsin Y activity”.

Consider EGYYGNYGVYA, for which the “cleavage product(s)” value in data set [2] is reported as “EGYYGNYGVY; also recorded: EGYYGNYGV”. On to `CC(C)[C@@H](NC(=O)OCc1ccccc1)C(=O)N[C@H](C=O)Cc1ccccc1` [Example 24] (Cbz-[dV]-Phe-aldehyde), for which the “inhibition of Cathepsin Y activity” value in data set [1] is “indicated inhibition of Cathepsin Y activity”. Still for that read-out and setting: with `O=C[C@H](Cc1ccccc1)NC(=O)Cc1ccccc1` [Example 59] the entry was “indicated inhibition of Cathepsin Y activity”. With FFDEPNPGVTIY, in data set [2], the “cleavage product(s)” value was “FFDEPNPGVT”. Still for that read-out and setting: with EGYYGNYGV the entry was “EGYYGNYGV”.

For the molecule “Cathepsin Y: novel carboxypeptidase having a molecular weight of approximately 31 kD and the amino acid sequence set forth in SEQ ID No. 3”, the “effect on various APP preparations” value in data set [3] is given as “without effect”. Besides, the “pH optimum for carboxypeptidase activity” value in data set [4] is recorded as “about 4.5”. Further, in data set [2] (setting [6]), the “endopeptidase or aminopeptidase activity” value is given as “No evidence of any endopeptidase or aminopeptidase activity” and the predominant proteolytic activity result is “carboxypeptidase activity”. The “activity with known synthetic substrates for Cathepsin B, L or S” value in data set [5] is “No significant activity”. Turning to `O=C[C@H](Cc1ccccc1)NC(=O)C(c1ccccc1)c1ccccc1` [Example 3], the “inhibition of Cathepsin Y activity” value in data set [1] was “indicated inhibition of Cathepsin Y activity”.

Regarding `O=C[C@H](Cc1ccccc1)NC(=O)C1c2ccccc2Oc2ccccc21` [Example 64], in data set [1], the “inhibition of Cathepsin Y activity” value was “indicated inhibition of Cathepsin Y activity”. Consider `CC(C)[C@H](NC(=O)OCc1ccccc1)C(=O)N[C@H](C=O)Cc1ccccc1` [Example 15] (Cbz-Val-Phe-aldehyde), for which the “inhibition of Cathepsin Y activity” value in data set [1] is reported as “indicated inhibition of Cathepsin Y activity”.

Turning to YKRDMVGGVVIA, the “cleavage product(s)” value in data set [2] is listed as “YKRDMVGGVVI; also recorded: YKRDMVGGVV”.
